Assay results reported in patent publication US7041470B2, “Method of assaying the susceptibility of biofilms to anti-microbial agents” (University Technologies International, Inc., priority 1996, dated 2006).

Legend:
[1] = test system: staphylococcus epidermidis biofilm; assay: staphylococcus epidermidis biofilm, optical density reading of turbidity; format: cell-based; settings: 490 nm
Description: (§1) Up to 8 different antibiotics or biocides can be tested by using 1 row (A-H) for each antimicrobial reagent. […] Rinse the remaining projections in PBS using a troughed vessel 20 and place the colonized projections into the 96 well antibiotic plate and incubate overnight at 37° C. […] (3) From the freshly sonicated plate remove 0.02 ml of the medium from each well and spot plate neat; and 0.025 ml from each well to prepare a serial dilution (10^−1 to 10^−6) and spot plate 0.02 ml (dilutions can be done in microtiter plates, one for each antibiotic). Place the plate containing the remaining medium and bacteria to incubate at 37° C., overnight. Day 4: Assay the sessile survival, by for example reading the plate incubated overnight at 490 nm or by counting the colonies on the plates to determine the actual number of surviving bacteria, or by using some other method known in the art.

[2] = test system: staphylococcus epidermidis planktonic bacteria; assay: staphylococcus epidermidis planktonic bacteria, optical density reading of turbidity; format: cell-based; settings: 490 nm
Description: (§2) Up to 8 different antibiotics or biocides can be tested by using 1 row (A-H) for each antimicrobial reagent. […] Rinse the remaining projections in PBS using a troughed vessel 20 and place the colonized projections into the 96 well antibiotic plate and incubate overnight at 37° C.

Escherichia coli biofilm [3] = assay: Escherichia coli biofilm, optical density reading of turbidity; format: cell-based; settings: 490 nm
Description: as §1

[4] = test system: Escherichia coli planktonic bacteria; assay: Escherichia coli planktonic bacteria, optical density reading of turbidity; format: cell-based; settings: 490 nm
Description: as §2

[5] = test system: staph. aureus planktonic bacteria; assay: staph. aureus planktonic bacteria, optical density reading of turbidity; format: cell-based, staphylococcus aureus; settings: 490 nm
Description: as §2

staph. aureus biofilm = assay: staph. aureus biofilm, optical density reading of turbidity; format: cell-based, staphylococcus aureus; settings: 490 nm
Description: as §1

Escherichia coli biofilm [6] = assay: Escherichia coli biofilm on projections, antibiotic treatment, manual cfu count; format: cell-based
Description: (§3) Up to 8 different antibiotics or biocides can be tested by using 1 row (A-H) for each antimicrobial reagent. […] Rinse the remaining projections in PBS using a troughed vessel 20 and place the colonized projections into the 96 well antibiotic plate and incubate overnight at 37° C. […] (3) From the freshly sonicated plate remove 0.02 ml of the medium from each well and spot plate neat; and 0.025 ml from each well to prepare a serial dilution (10^−1 to 10^−6) and spot plate 0.02 ml (dilutions can be done in microtiter plates, one for each antibiotic). Place the plate containing the remaining medium and bacteria to incubate at 37° C., overnight. Day 4: Assay the sessile survival, by for example reading the plate incubated overnight at 490 nm or by counting the colonies on the plates to determine the actual number of surviving bacteria, or by using some other method known in the art. Several different conventional methods may be used to count the bacteria. It may be done by incubating the sonicated bacteria, taking serial dilutions and visually counting the colony forming units, or automated methods may be used, as for example using an optical reader to determine optical density. […] In the case of using vital dye technology, the biofilm need not be further incubated. In a further embodiment, the assay may be carried out by sonicating the cells until they lyse and release ATP and then adding luciferase to produce a mechanically readable light output. In a still further embodiment, the assay may be carried out directly on the biofilm on the projections using a confocal microscope, although it should be considered that this is difficult to automate. […] Examples are given to show a comparison between counts of planktonic bacteria and counts of sessile bacteria for the same growth conditions. […] The initial biofilm was colonized for four hours. The antibiotic was applied to the wells 2-12 of the rows A-H of a 96 well plate as follows: well 2: no antibiotic, well 3: 1000 μg/mL, well 4: 500 μg/mL . . . well 12: 2 μg/mL. 250 μL final volume of diluted antibiotic was applied to the wells.

[7] = test system: staphylococcus aureus biofilm; assay: staphylococcus aureus biofilm on projections, antibiotic treatment, manual cfu count; format: cell-based
Description: as §3, with “dilution (10^-1” for “dilution (10^−1”, “to 10^-6)” for “to 10^−6)”, “The” for “The initial biofilm was colonized for four hours. The”, “rows A-G” for “rows A-H”, “μg/mL.” for “μg/mL. 250 μL final volume of diluted antibiotic was applied to the wells.”

[8] = well 5 of doubling dilutions, well 3: 1000 μg/mL to well 12: 2 μg/mL
[9] = well 6 of doubling dilutions, well 3: 1000 μg/mL to well 12: 2 μg/mL ([…] implied)
[10] = well 7 of doubling dilutions, well 3: 1000 μg/mL to well 12: 2 μg/mL
[11] = well 8 of doubling dilutions, well 3: 1000 μg/mL to well 12: 2 μg/mL
[12] = well 9 of doubling dilutions, well 3: 1000 μg/mL to well 12: 2 μg/mL
[13] = well 10 of doubling dilutions, well 3: 1000 μg/mL to well 12: 2 μg/mL ([…] implied)
[14] = well 11 of doubling dilutions, well 3: 1000 μg/mL to well 12: 2 μg/mL
[15] = well 3: 1000 μg/mL antibiotic, biofilm colonized four hours
[16] = well 4: 500 μg/mL antibiotic, biofilm colonized four hours

CC(C)(O/N=C(\C(=O)N[C@@H]1C(=O)N2C(C(=O)[O-])=C(C[n+]3ccccc3)CS[C@H]12)c1csc(N)n1)C(=O)O [F, ceftazidine]
optical density reading of turbidity, staphylococcus epidermidis biofilm ([1]; well 3: 1000 μg/mL antibiotic): .897
optical density reading of turbidity, staphylococcus epidermidis biofilm ([1]; well 4: 500 μg/mL antibiotic): .888
optical density reading of turbidity, staphylococcus epidermidis biofilm [1, 8]: 1.013
optical density reading of turbidity, staphylococcus epidermidis biofilm [1, 9]: .855
optical density reading of turbidity, staphylococcus epidermidis biofilm [1, 10]: .992
optical density reading of turbidity, staphylococcus epidermidis biofilm [1, 11]: .903
optical density reading of turbidity, staphylococcus epidermidis biofilm [1, 12]: .920
optical density reading of turbidity, staphylococcus epidermidis biofilm [1, 13]: .850
optical density reading of turbidity, staphylococcus epidermidis biofilm [1, 14]: .843
optical density reading of turbidity, staphylococcus epidermidis biofilm ([1]; well 12: 2 μg/mL antibiotic): .902
optical density reading of turbidity, staphylococcus epidermidis planktonic bacteria ([2]; well 3: 1000 μg/mL antibiotic): .359
optical density reading of turbidity, staphylococcus epidermidis planktonic bacteria ([2]; well 4: 500 μg/mL antibiotic): .383
optical density reading of turbidity, staphylococcus epidermidis planktonic bacteria [2, 8]: .397
optical density reading of turbidity, staphylococcus epidermidis planktonic bacteria [2, 9]: .410
optical density reading of turbidity, staphylococcus epidermidis planktonic bacteria [2, 10]: .466
optical density reading of turbidity, staphylococcus epidermidis planktonic bacteria [2, 11]: .540
optical density reading of turbidity, staphylococcus epidermidis planktonic bacteria [2, 12]: .615
optical density reading of turbidity, staphylococcus epidermidis planktonic bacteria [2, 13]: .627
optical density reading of turbidity, staphylococcus epidermidis planktonic bacteria [2, 14]: .694
optical density reading of turbidity, staphylococcus epidermidis planktonic bacteria ([2]; well 12: 2 μg/mL antibiotic): .853
optical density reading of turbidity, Escherichia coli biofilm (Escherichia coli biofilm [3]; well 3: 1000 μg/mL antibiotic): .121
optical density reading of turbidity, Escherichia coli biofilm (Escherichia coli biofilm [3]; well 4: 500 μg/mL antibiotic): .123
optical density reading of turbidity, Escherichia coli biofilm (Escherichia coli biofilm [3]; [8]): 1.158
optical density reading of turbidity, Escherichia coli biofilm (Escherichia coli biofilm [3]; [9]): .121
optical density reading of turbidity, Escherichia coli biofilm (Escherichia coli biofilm [3]; [11]): .120
optical density reading of turbidity, Escherichia coli biofilm (Escherichia coli biofilm [3]; [12]): .123
optical density reading of turbidity, Escherichia coli biofilm (Escherichia coli biofilm [3]; [13]): 1.152
optical density reading of turbidity, Escherichia coli biofilm (Escherichia coli biofilm [3]; [14]): 1.249
optical density reading of turbidity, Escherichia coli biofilm (Escherichia coli biofilm [3]; well 12: 2 μg/mL antibiotic): 1.268
optical density reading of turbidity, Escherichia coli planktonic bacteria ([4]; well 3: 1000 μg/mL antibiotic): .123
optical density reading of turbidity, Escherichia coli planktonic bacteria ([4]; well 4: 500 μg/mL antibiotic): .129
optical density reading of turbidity, Escherichia coli planktonic bacteria [4, 8]: .134
optical density reading of turbidity, Escherichia coli planktonic bacteria [4, 9]: .137
optical density reading of turbidity, Escherichia coli planktonic bacteria [4, 10]: .128
optical density reading of turbidity, Escherichia coli planktonic bacteria [4, 11]: .137
optical density reading of turbidity, Escherichia coli planktonic bacteria [4, 12]: .137
optical density reading of turbidity, Escherichia coli planktonic bacteria [4, 13]: .140
optical density reading of turbidity, Escherichia coli planktonic bacteria [4, 14]: .147
optical density reading of turbidity, Escherichia coli planktonic bacteria ([4]; well 12: 2 μg/mL antibiotic): .152
optical density reading of turbidity, staph. aureus planktonic bacteria ([5]; well 3: 1000 μg/mL antibiotic): .073
optical density reading of turbidity, staph. aureus planktonic bacteria ([5]; well 4: 500 μg/mL antibiotic): .076
optical density reading of turbidity, staph. aureus planktonic bacteria [5, 8]: .081
optical density reading of turbidity, staph. aureus planktonic bacteria [5, 9]: .079
optical density reading of turbidity, staph. aureus planktonic bacteria [5, 10]: .076
optical density reading of turbidity, staph. aureus planktonic bacteria [5, 11]: .079
optical density reading of turbidity, staph. aureus planktonic bacteria [5, 12]: .078
optical density reading of turbidity, staph. aureus planktonic bacteria [5, 13]: .111
optical density reading of turbidity, staph. aureus planktonic bacteria [5, 14]: .564
optical density reading of turbidity, staph. aureus planktonic bacteria ([5]; well 12: 2 μg/mL antibiotic): .717
optical density reading of turbidity, staph. aureus biofilm (staph. aureus biofilm; well 3: 1000 μg/mL antibiotic): .779
optical density reading of turbidity, staph. aureus biofilm (staph. aureus biofilm; well 4: 500 μg/mL antibiotic): .830
optical density reading of turbidity, staph. aureus biofilm (staph. aureus biofilm; [8]): .777
optical density reading of turbidity, staph. aureus biofilm (staph. aureus biofilm; [9]): .739
optical density reading of turbidity, staph. aureus biofilm (staph. aureus biofilm; [10]): .719
optical density reading of turbidity, staph. aureus biofilm (staph. aureus biofilm; [11]): .840
optical density reading of turbidity, staph. aureus biofilm (staph. aureus biofilm; [12]): .806
optical density reading of turbidity, staph. aureus biofilm (staph. aureus biofilm; [13]): .882
optical density reading of turbidity, staph. aureus biofilm (staph. aureus biofilm; [14]): .924
optical density reading of turbidity, staph. aureus biofilm (staph. aureus biofilm; well 12: 2 μg/mL antibiotic): .916
manually counted cfu, Escherichia coli biofilm (Escherichia coli biofilm [6]; [15]): 0 cfu
manually counted cfu, Escherichia coli biofilm (Escherichia coli biofilm [6]; [16]): 0 cfu
manually counted cfu, Escherichia coli biofilm (Escherichia coli biofilm [6]; [8]): 0 cfu
manually counted cfu, Escherichia coli biofilm (Escherichia coli biofilm [6]; [9]): 0 cfu
manually counted cfu, Escherichia coli biofilm (Escherichia coli biofilm [6]; [10]): 0 cfu
manually counted cfu, Escherichia coli biofilm (Escherichia coli biofilm [6]; [11]): 0 cfu
manually counted cfu, Escherichia coli biofilm (Escherichia coli biofilm [6]; [12]): 0 cfu
manually counted cfu, staphylococcus aureus biofilm ([7]; well 3: 1000 μg/mL antibiotic): 0 cfu
manually counted cfu, staphylococcus aureus biofilm ([7]; well 4: 500 μg/mL antibiotic): 1.0 × 10^2 cfu
manually counted cfu, staphylococcus aureus biofilm [7, 8]: 0 cfu
manually counted cfu, staphylococcus aureus biofilm [7, 9]: 1.0 × 10^2 cfu
manually counted cfu, staphylococcus aureus biofilm [7, 10]: 50 cfu
manually counted cfu, staphylococcus aureus biofilm [7, 11]: 0 cfu
manually counted cfu, staphylococcus aureus biofilm [7, 12]: 0 cfu
manually counted cfu, staphylococcus aureus biofilm [7, 13]: 1.0 × 10^5 cfu
manually counted cfu, staphylococcus aureus biofilm [7, 14]: 4.0 × 10^5 cfu
manually counted cfu, staphylococcus aureus biofilm ([7]; well 12: 2 μg/mL antibiotic): 9.0 × 10^5 cfu

O=C(O)c1cn(C2CC2)c2cc(N3CCNCC3)c(F)cc2c1=O [G, Ciprofloxacin]
manually counted cfu, Escherichia coli biofilm (Escherichia coli biofilm [6]; [15]): 0 cfu
manually counted cfu, Escherichia coli biofilm (Escherichia coli biofilm [6]; [16]): 0 cfu
manually counted cfu, Escherichia coli biofilm (Escherichia coli biofilm [6]; [8]): 0 cfu
manually counted cfu, Escherichia coli biofilm (Escherichia coli biofilm [6]; [9]): 0 cfu
manually counted cfu, Escherichia coli biofilm (Escherichia coli biofilm [6]; [10]): 0 cfu
manually counted cfu, Escherichia coli biofilm (Escherichia coli biofilm [6]; [11]): 0 cfu
manually counted cfu, Escherichia coli biofilm (Escherichia coli biofilm [6]; [13]): 0 cfu
manually counted cfu, Escherichia coli biofilm (Escherichia coli biofilm [6]; [14]): 0 cfu
manually counted cfu, staphylococcus aureus biofilm ([7]; well 3: 1000 μg/mL antibiotic): 0 cfu
manually counted cfu, staphylococcus aureus biofilm ([7]; well 4: 500 μg/mL antibiotic): 0 cfu
manually counted cfu, staphylococcus aureus biofilm [7, 8]: 0 cfu
manually counted cfu, staphylococcus aureus biofilm [7, 9]: 50 cfu
manually counted cfu, staphylococcus aureus biofilm [7, 10]: 1.0 × 10^2 cfu
manually counted cfu, staphylococcus aureus biofilm [7, 11]: 50 cfu
manually counted cfu, staphylococcus aureus biofilm [7, 12]: 0 cfu
manually counted cfu, staphylococcus aureus biofilm [7, 13]: 0 cfu
manually counted cfu, staphylococcus aureus biofilm [7, 14]: 0 cfu
manually counted cfu, staphylococcus aureus biofilm ([7]; well 12: 2 μg/mL antibiotic): 0 cfu
